Drawing on patent US10882854B2, “Heterocyclic compounds and use thereof” (National Health Research Institutes, priority 2017, dated 2021), this text covers EC50 and IC50 for 54 compounds.

In assay [1] the test system is T-cell acute lymphoblastic leukemia (CCRF-CEM) cells. Nature of the assay: Inhibition of CXCL12-induced chemotaxis in lymphoblastic leukemia cells. To be noted: Homo sapiens, CXCL12 10 nM, 2.5 h at 37 °C, read-out: concentration required to inhibit chemotaxis by 50% (EC50). It is filed as cell-based. As for the experimental part: The response of cancer cells to compounds of Formula (I) was evaluated using the chemotaxis assay as set forth below.
T-cell acute lymphoblastic leukemia (CCRF-CEM) cells in Roswell Park Memorial Institute medium (RPMI) 1640 supplemented with 10% […] were incubated with 250 μL of a test compound. The assay was performed using Millicell Hanging Cell Culture Inserts (pore size 5 μm; 24-well plate; Millipore, Bedford, Mass., USA). After 10 minutes at 37° C., 250 μL of cells pre-incubated with a test compound were plated per well in the upper chambers of the inserts at a density of 2.5×10^5 cells/well. 300 μL/well medium containing CXCL12 (10 nM) and a test compound were plated in the lower chamber of the insert. After 2.5 h at 37° C., cells in both chambers of inserts were measured by flow cytometry (Guava Technologies, Hayward, Calif., USA).

In another assay the target is T1, human CXCR4 (Homo sapiens, UniProt P61073).
T1 construct: expressed in transfected cells; host or cells: HEK293 cells (membranes)
Nature of the assay: Inhibition of 125I-CXCL12 radioligand binding, membranes of human CXCR4-transfected HEK293 cells. To be noted: 0.16 nM 125I-CXCL12, 60 min at 30 °C, read-out: concentration required to inhibit binding of 125I-CXCL12 to CXCR4 by 50% (IC50). As for the experimental part: Binding competition between the compounds of Formula (I) and human CXCL12 was assessed using a radioligand binding assay as described below.
Membranes (2-4 μg) prepared from human CXCR4-transfected HEK293 cells in 40 μL of assay buffer (50 mM HEPES-NaOH, pH 7.4, 100 mM NaCl, 5 mM MgCl2, 1 mM CaCl2, 0.5% bovine serum albumin) were incubated with 20 μL of radio-labeled ^125I-CXCL12 (0.16 nM) and 20 μL of a test compound in an assay plate (Costar Corning, Cambridge, Mass.). After 60 minutes at 30° C., the incubation was terminated by transferring the resulting reaction mixture to a 96-well GF/B filter plate (Millipore Corp., Billerica, Mass.) and filtered via a manifold. The plate was washed with 100 μL of ice-cold wash buffer (50 mM HEPES-NaOH, pH 7.4, 100 mM NaCl) four times. The radioactivity bound to the filter was measured by Topcount (PerkinElmer Inc., Waltham, Mass.).

T1 sequence (P61073 whole entry): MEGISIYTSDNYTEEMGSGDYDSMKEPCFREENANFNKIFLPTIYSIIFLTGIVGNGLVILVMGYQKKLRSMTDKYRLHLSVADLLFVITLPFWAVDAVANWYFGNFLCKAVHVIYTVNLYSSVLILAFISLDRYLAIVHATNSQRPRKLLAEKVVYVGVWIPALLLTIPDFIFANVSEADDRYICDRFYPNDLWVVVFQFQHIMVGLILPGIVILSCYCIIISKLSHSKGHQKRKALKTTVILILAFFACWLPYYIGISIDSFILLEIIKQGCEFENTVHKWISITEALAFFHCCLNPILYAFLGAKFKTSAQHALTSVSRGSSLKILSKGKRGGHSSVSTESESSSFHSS

With `c1ccc2c(NC3CCNCC3)nc(NCc3cc(CCCNCCCNC4CCCCC4)on3)nc2c1` [Compound 1], the EC50 in assay [1] was less than 50 nM. Also, the IC50 at human CXCR4 was less than 50 nM. Regarding `c1ccc2c(NC3CCNCC3)nc(NCc3coc(CCCNCCCNC4CCCCC4)n3)nc2c1` [Compound 2], in assay [1], the EC50 is less than 50 nM. For the same compound, the IC50 at human CXCR4 was less than 50 nM. On to `c1ccc2c(NC3CCNCC3)nc(NCc3nc(CCCNCCCNC4CCCCC4)cs3)nc2c1` [Compound 3], for which the EC50 in assay [1] is less than 50 nM. Moreover, the IC50 on human CXCR4 is less than 50 nM. Consider `c1ccc2c(NC3CCNCC3)nc(NCc3nnc(CCCNCCCNC4CCCCC4)o3)nc2c1` [Compound 6], for which the EC50 in assay [1] is less than 50 nM. For the same compound, on human CXCR4, the IC50 is less than 50 nM. With `c1ccc2c(NC3CCNCC3)nc(NCc3nnc(CCCNCCCNC4CCCCC4)s3)nc2c1` [Compound 7], the EC50 in assay [1] was less than 50 nM. On human CXCR4, the IC50 was less than 50 nM.

In the case of `c1ccc2c(NC3CCNCC3)nc(NCCc3cn(CCCCNCCCNC4CCCCC4)cn3)nc2c1` [Compound 8], the EC50 in assay [1] is less than 50 nM. For the same compound, the IC50 at human CXCR4 fell in the range of 50 to 100 nM. Turning to `c1ccc2c(NC3CCNCC3)nc(NCc3cc(CCCNCCCNC4CCCCC4)[nH]n3)nc2c1` [Compound 9], the IC50 on human CXCR4 was less than 50 nM. Still for that read-out and setting: then `c1ccc2c(NC3CCNCC3)nc(NCc3ncn(CCCNCCCNC4CCCCC4)n3)nc2c1` [Compound 11], with 50 to 100 nM; and `c1ccc2c(N3CCNCC3)nc(NCc3nnn(CCCNCCCNC4CCCCC4)n3)nc2c1` [Compound 12], with less than 50 nM. Consider `c1ccc2c(NC3CCNCC3)nc(NCc3nnnn3CCCNCCCNC3CCCCC3)nc2c1` [Compound 14], for which the EC50 in assay [1] is less than 50 nM. Besides, the IC50 at human CXCR4 is 50 to 100 nM. Consider `Cc1cc(NC2CCNCC2)nc(NCc2cc(CCCNCCCNC3CCCCC3)on2)n1` [Compound 15], for which the EC50 in assay [1] was less than 50 nM. Moreover, on human CXCR4, the IC50 is less than 50 nM. For `Cc1cc(NC2CCNCC2)nc(NCc2coc(CCCNCCCNC3CCCCC3)n2)n1` [Compound 16], the EC50 in assay [1] was less than 50 nM. Moreover, the IC50 on human CXCR4 is less than 50 nM. For the compound `Cc1cc(NC2CCNCC2)nc(NCc2nc(CCCNCCCNC3CCCCC3)cs2)n1` [Compound 17], the EC50 in assay [1] was less than 50 nM. Also, on human CXCR4, the IC50 was less than 50 nM. With `Cc1cc(NC2CCNCC2)nc(NCc2nc(CCCNCCCNC3CCCCC3)co2)n1` [Compound 18], the EC50 in assay [1] was less than 50 nM. Further, on human CXCR4, the IC50 was less than 50 nM. With `Cc1cc(NC2CCNCC2)nc(NCc2noc(CCCNCCCNC3CCCCC3)n2)n1` [Compound 19], the IC50 at human CXCR4 is less than 50 nM. Same read-out and setting: to `CCc1cc(NC2CCNCC2)nc(NCc2nnc(CCCNCCCNC3CCCCC3)s2)n1` [Compound 25] belongs less than 50 nM; to `CCc1cc(NC2CCNCC2)nc(NCc2nnc(CCCNCCCNC3CCCCC3)[nH]2)n1` [Compound 27], 50 to 100 nM. `Cc1cc(NC2CCNCC2)nc(NCc2cc(CCCNCCCNC3CCCCC3)[nH]n2)n1` [Compound 28]: the IC50 at human CXCR4 is less than 50 nM. Still for that read-out and setting: then `N[C@@H](CCC(=O)N1CCC(Nc2nc(NCCc3cn(CCCCNCCCNC4CCCCC4)cn3)nc3ccccc23)CC1)C(=O)O` [Compound 36], with 100 to 1000 nM. Same read-out and setting: then `Cc1cc(NC2CCN(C(=O)CCNCC(=O)O)CC2)nc(NCc2noc(CCCNCCCNC3CCCCC3)n2)n1` [Compound 43], with 50 to 100 nM; and `Cc1cc(NC2CCN(C(=O)CCNCC(=O)O)CC2)nc(NCc2nnc(CCCNCCCNC3CCCCC3)o2)n1` [Compound 44], with 100 to 1000 nM. On the same count and under the same terms, to `N[C@@H](CCC(=O)NCCN1CCC(Nc2nc(NCc3nnc(CCCNCCCNC4CCCCC4)o3)nc3ccccc23)CC1)C(=O)NCCP(=O)(O)O` [Compound 51] belongs 100 to 1000 nM; to `N[C@@H](CCC(=O)NCCN1CCC(Nc2nc(NCc3nnnn3CCCNCCCNC3CCCCC3)nc3ccccc23)CC1)C(=O)NCCP(=O)(O)O` [Compound 52], 100 to 1000 nM; to `c1cnc2nc(NCc3nnn(CCCNCCCNC4CCCCC4)n3)nc(NC3CCNCC3)c2c1` [Compound 53], 100 to 1000 nM. Consider `O=C(O)[C@@H](O)CCC(=O)N1CCC(Nc2nc(NCc3nc(CCCNCCCNC4CCCCC4)co3)nc3ccccc23)CC1` [Compound 54], for which the IC50 at human CXCR4 is 100 to 1000 nM. As for `c1nc2c(NCc3nnn(CCCNCCCNC4CCCCC4)n3)nc(N3CCNCC3)nc2[nH]1` [Compound 55], the IC50 on human CXCR4 lay within 100 to 1000 nM. The same measure, in the same setting: then `c1cc2c(NC3CCNCC3)nc(NCc3nnn(CCCNCCCNC4CCCCC4)n3)nc2s1` [Compound 56], with 100 to 1000 nM. Take `Nc1cc(N2CCNCC2)nc(NCc2nnn(CCCNCCCNC3CCCCC3)n2)n1` [Compound 57]: the IC50 at human CXCR4 lay in the range of 100 to 1000 nM. In the case of `c1cc(NC2CCNCC2)nc(NCc2nnn(CCCNCCCNC3CCCCC3)n2)n1` [Compound 58], the IC50 at human CXCR4 fell in the range of 50 to 100 nM. As to `N[C@@H](CCC(=O)N1CCC(Nc2nc(NCCc3cn(CCCCNCCCNC4CCCCC4)cn3)nc3ccccc23)CC1)C(=O)OCc1ccccc1` [Compound 60], the IC50 on human CXCR4 was 100 to 1000 nM.

Regarding `CCc1cc(NC2CCN(C(=O)CCNCC(=O)O)CC2)nc(NCc2nnn(CCCNCCCNC3CCCCC3)n2)n1` [Compound 63], the IC50 on human CXCR4 fell in the range of 100 to 1000 nM. The same measure, in the same setting: then `CCc1cc(NC2CCN(C(=O)CCCNCC(=O)O)CC2)nc(NCc2nnn(CCCNCCCNC3CCCCC3)n2)n1` [Compound 64], with 100 to 1000 nM; and `CCc1cc(NC2CCN(C(=O)CC[C@H](N)C(=O)O)CC2)nc(NCc2nnn(CCCNCCCNC3CCCCC3)n2)n1` [Compound 65], with 100 to 1000 nM; and `CCc1cc(NC2CCN(C(=O)CC[C@H](N)C(=O)O)CC2)nc(NCc2nnc(CCCNCCCNC3CCCCC3)[nH]2)n1` [Compound 66], with 50 to 100 nM. Same read-out and setting: to `N[C@@H](CCC(=O)N1CCC(Nc2nc(NCc3nnnn3CCCNCCCNC3CCCCC3)nc3ccccc23)CC1)C(=O)O` [Compound 67] belongs 100 to 1000 nM. `O=C(O)CNCCC(=O)N1CCC(Nc2nc(NCc3nnnn3CCCNCCCNC3CCCCC3)nc3ccccc23)CC1` [Compound 68]: the IC50 on human CXCR4 lay within 100 to 1000 nM. The same measure, in the same setting: to `CCc1cc(NC2CCN(C(=O)CC[C@H](N)C(=O)O)CC2)nc(NCc2nnc(CCCNCCCNC3CCCCC3)s2)n1` [Compound 69] belongs 100 to 1000 nM; to `CCc1cc(NC2CCN(C(=O)CCNCC(=O)O)CC2)nc(NCc2nnc(CCCNCCCNC3CCCCC3)s2)n1` [Compound 70], 100 to 1000 nM. The same measure, in the same setting: then `Cc1cc(NC2CCNCC2)nc(NCc2ncn(CCCNCCCNC3CCCCC3)n2)n1` [Compound 71], with 100 to 1000 nM; and `C1=NC(CNc2nc(NC3CCNCC3)c3ccccc3n2)=NC1CNCCCNC1CCCCC1` (centres unmarked) [Compound 72], with 50 to 100 nM. Same read-out and setting: then `Cc1cc(NC2CCNCC2)nc(NCc2nc(CNCCCNC3CCCCC3)c[nH]2)n1` [Compound 73], with 50 to 100 nM; and `FC(F)(F)c1cnc(NCc2nnn(CCCNCCCNC3CCCCC3)n2)nc1NC1CCNCC1` [Compound 74], with 100 to 1000 nM; and `Cc1cnc(NCc2nnn(CCCNCCCNC3CCCCC3)n2)nc1NC1CCNCC1` [Compound 75], with less than 50 nM.

For `N[C@@H](CCC(=O)N1CCC(Nc2nc(NCc3cc(CCCNCCCNC4CCCCC4)n[nH]3)nc3ccccc23)CC1)C(=O)O` [Compound 76], the IC50 at human CXCR4 fell in the range of 50 to 100 nM. The same measure, in the same setting: then `N[C@@H](CCC(=O)N1CCC(Nc2nc(NCc3ncn(CCCNCCCNC4CCCCC4)n3)nc3ccccc23)CC1)C(=O)O` [Compound 77], with 100 to 1000 nM; and `O=C(O)[C@H]1CCCN1CCC(=O)N1CCC(Nc2nc(NCc3nnn(CCCNCCCNC4CCCCC4)n3)nc3ccccc23)CC1` [Compound 78], with 50 to 100 nM.

With `N[C@@H](CCC(=O)N1CCC(Nc2nc(NCc3nc(CNCCCNC4CCCCC4)c[nH]3)nc3ccccc23)CC1)C(=O)O` [Compound 79], the IC50 on human CXCR4 is 100 to 1000 nM.

Regarding `CC(C)CC(NCCC(=O)N1CCC(Nc2nc(NCc3nnn(CCCNCCCNC4CCCCC4)n3)nc3ccccc23)CC1)C(=O)O` (centres unmarked) [Compound 80], the IC50 on human CXCR4 lay in the range of 100 to 1000 nM. Still for that read-out and setting: then `Cc1cc(NC2CCN(C(=O)CCNCC(=O)O)CC2)nc(NCc2ncn(CCCNCCCNC3CCCCC3)n2)n1` [Compound 81], with 100 to 1000 nM; and `CCOC(=O)CNCCC(=O)N1CCC(Nc2cc(C)nc(NCc3cc(CCCNCCCNC4CCCCC4)n[nH]3)n2)CC1` [Compound 82], with 50 to 100 nM; and `Cc1cc(NC2CCN(C(=O)CCNCC(=O)O)CC2)nc(NCc2nc(CNCCCNC3CCCCC3)c[nH]2)n1` [Compound 83], with 100 to 1000 nM. `N[C@@H](CCC(=O)NCCN1CCC(Nc2nc(NCc3nc(CNCCCNC4CCCCC4)cs3)nc3ccccc23)CC1)C(=O)NCCP(=O)(O)O` [Compound 84]: the IC50 at human CXCR4 was in the range of 100 to 1000 nM.

Regarding `Cc1cnc(NCc2nnn(CCCNCCCNC3CCCCC3)n2)nc1NC1CCN(C(=O)CCNCC(=O)O)CC1` [Compound 85], the IC50 at human CXCR4 was 100 to 1000 nM. Still for that read-out and setting: then `Cc1cnc(NCc2nnn(CCCNCCCNC3CCCCC3)n2)nc1NC1CCN(C(=O)CC[C@H](N)C(=O)O)CC1` [Compound 86], with 100 to 1000 nM.
